Tests used:
LNCaP = test: Antiproliferative activity against human LNCAP cells assessed as reduction in cell viability incubated for 24 hrs by MTT assay
HT-1080 = test: Antiproliferative activity against human HT-1080 cells assessed as reduction in cell viability; assay type: functional, cell-based
A549 = test: Antiproliferative activity against human A549 cells assessed as reduction in cell growth; assay type: functional, cell-based
[1] = Inhibition of NF-kappaB (unknown origin); design: species or system Homo sapiens
DU-145 = test: Antiproliferative activity against human DU-145 cells assessed as reduction in cell viability incubated for 48 hrs by CCK8 assay; assay type: functional, cell-based; details: DU-145, 48 h
PC-3 = test: Antitumor activity against human PC-3 cells xenografted in mouse assessed as tumor growth inhibition at 10 mg/kg, po administered once daily relative to control; assay type: functional; design: scale not given: the % may be the effect or the level left
[2] = molecular target: S-phase kinase-associated protein 2 (Homo sapiens, UniProt Q13309); test: Inhibition of SKP2 (unknown origin)
NCI-H2170 = test: Antiproliferative activity against human NCI-H2170 cells assessed as reduction in cell growth incubated for 72 hrs by CCK-8 assay; assay type: functional, cell-based; details: NCI-H2170, 72 h
NCI-H358 = test: Antiproliferative activity against human NCI-H358 cells assessed as reduction in cell growth incubated for 72 hrs by CCK-8 assay; assay type: functional, cell-based; details: NCI-H358, 72 h
HGC-27 = test: Antiproliferative activity against human HGC-27 cells assessed as reduction in cell growth incubated for 24 hrs by CCK-8 assay; assay type: functional, cell-based; details: HGC-27, 24 h

S-phase kinase-associated protein 2, sequence (Q13309 whole entry): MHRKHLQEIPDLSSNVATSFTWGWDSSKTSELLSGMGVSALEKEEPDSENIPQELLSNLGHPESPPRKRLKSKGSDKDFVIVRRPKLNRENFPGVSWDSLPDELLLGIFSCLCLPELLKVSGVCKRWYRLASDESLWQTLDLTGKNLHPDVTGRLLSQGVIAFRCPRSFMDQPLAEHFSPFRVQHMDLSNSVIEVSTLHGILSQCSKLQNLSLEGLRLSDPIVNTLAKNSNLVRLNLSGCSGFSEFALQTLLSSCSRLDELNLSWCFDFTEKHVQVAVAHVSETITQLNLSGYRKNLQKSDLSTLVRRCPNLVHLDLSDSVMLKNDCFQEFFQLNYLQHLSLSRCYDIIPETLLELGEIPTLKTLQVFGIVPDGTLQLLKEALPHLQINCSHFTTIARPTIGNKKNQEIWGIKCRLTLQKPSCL

Question: For `O=C(OCn1ncc(Cl)c(Cl)c1=O)c1cccc(C(F)(F)F)c1`, which IC50 (LNCaP) is on record?
Answer: Its IC50 is 1.71 µM.

Question: What does the source list for `Cc1ccc(S(=O)(=O)Nc2cc(Oc3cc(F)cc(F)c3)cc3cccnc23)cc1`?
Answer: IC50 (HT-1080): 0.08 µM; IC50 (A549): 4.11 µM

Question: With `COc1ccc(Oc2cc(NS(=O)(=O)c3ccc(C)cc3)c3ncccc3c2)cc1` as the compound, how does the IC50 (HT-1080) read?
Answer: Its IC50 is 0.74 µM.

Question: And the IC50 (A549)?
Answer: Its IC50 is 4.09 µM.

Question: Which results are given for `Cc1ccc(S(=O)(=O)Nc2cc(Oc3cccc(C#N)c3)cc3cccnc23)cc1`?
Answer: IC50 (HT-1080): 6.83 µM; IC50 (A549): 6.48 µM

Question: For `O=C(O)c1ccc(N2N=C(Cc3ccccc3)/C(=C\c3ccc(-c4ccccc4F)o3)C2=O)cc1`, which IC50 [1] is on record?
Answer: The IC50 was 5.2 µM.

Question: For `C/C=C/C(=O)c1c(OC)cc(=O)oc1C`, which IC50 (DU-145) is on record?
Answer: The IC50 was 19.7 µM.

Question: With `O=C(CCl)NC1CCN(c2cnc(-c3ccccc3)c(-c3ccccc3)n2)CC1` as the compound, how does the Activity (PC-3) read?
Answer: Its Activity is 55.68%.

Question: And the IC50 [2]?
Answer: The IC50 was 2.76 µM.

Question: Which IC50 (LNCaP) does the source give for `CC(C)(C)c1cc2cc(NC(=O)c3cccs3)ccc2[nH]1` here?
Answer: The IC50 was 4.63 µM.

Question: Which IC50 (NCI-H2170) does the source give for `O=C(Nc1cc(F)cc(F)c1)Nc1cccc(COc2ccc(Cl)cc2Cl)c1` here?
Answer: Its IC50 is 5.55 µM.

Question: And the IC50 (NCI-H358)?
Answer: Its IC50 is 6.4 µM.

Question: Which results are given for `O=C(Nc1cc(F)cc(F)c1)Nc1cccc(COc2ncc(Cl)cn2)c1`?
Answer: IC50 (NCI-H2170): 5.6 µM; IC50 (NCI-H358): 5.85 µM

Question: For `N#Cc1ccc(OCc2cccc(NC(=O)Nc3cc(F)cc(F)c3)c2)cc1`, which IC50 (NCI-H2170) is on record?
Answer: Its IC50 is 4.12 µM.

Question: What about the IC50 (NCI-H358) of the same compound?
Answer: The IC50 was 5.8 µM.

Question: What does the source list for `O=C(Nc1cc(F)cc(F)c1)Nc1cccc(CNc2ccc(Cl)cc2)c1`?
Answer: IC50 (NCI-H2170): 7.31 µM; IC50 (NCI-H358): 6.97 µM

Question: For `CCCCc1ccc(NC(C)=O)c(C)c1`, which IC50 (LNCaP) is on record?
Answer: The IC50 was 1.09 µM.

Question: With `CC(Oc1ccc(C#N)cc1)c1cccc(NC(=O)Nc2cc(F)cc(F)c2)c1` (configuration not stated) as the compound, how does the IC50 (NCI-H2170) read?
Answer: Its IC50 is 4.47 µM.

Question: And the IC50 (NCI-H358)?
Answer: The IC50 was 4.73 µM.

Question: With `CS(=O)(=O)c1ccc(CCC(=O)Nc2ccccn2)cc1` as the compound, how does the IC50 (LNCaP) read?
Answer: The IC50 was 3.56 µM.

Question: For `COc1cc(C)ccc1-c1nc(C)c(NC(=O)OCc2ccc3c(c2)nc2n3CCOC2)s1`, which IC50 (HT-1080) is on record?
Answer: The IC50 was 0.00175 µM.

Question: For `CCn1nnc2cc(COC(=O)Nc3sc(-c4ccc(C)cc4OC)nc3C)ccc21`, which IC50 (HT-1080) is on record?
Answer: Its IC50 is 0.00164 µM.

Question: Which results are given for `O=C(Nc1cc(F)cc(F)c1)Nc1cccc(COc2ccccc2Cl)c1`?
Answer: IC50 (NCI-H2170): 7.93 µM; IC50 (NCI-H358): 8.1 µM

Question: Which results are given for `O=C(Nc1cc(F)cc(F)c1)Nc1cccc(COc2ccc(Cl)cc2)c1`?
Answer: IC50 (NCI-H2170): 3.19 µM; IC50 (NCI-H358): 7.9 µM

Question: For `CCOc1nc2cccc(C(=O)OCc3oc(=O)oc3C)c2n1Cc1ccc(-c2ccccc2-c2noc(=O)[nH]2)cc1` [AZILSARTAN MEDOXOMIL], which IC50 (DU-145) is on record?
Answer: Its IC50 is 50 µM.

Question: What about the IC50 (HGC-27) of the same compound?
Answer: Its IC50 is 0.399 µM.

— ChEMBL document CHEMBL6071154, “A patent review of SCF E3 ligases inhibitors for cancer:Structural design, pharmacological activities and structure-activity relationship” (Eur J Med Chem, 2024)
